# Results reported in article PMC5192466, “Kunitz-Type Peptide HCRG21 from the Sea Anemone Heteractis crispa Is a Full Antagonist of the TRPV1 Receptor” (Marine Drugs, 2016).
# Entries after “also recorded” stand apart in the source; their conditions may differ. Bridges are numbered along the chain shown (N, C = ends). Where no end group is shown, it is not given here.
# Assays:
# TRPV1 = biological target: T1, TRPV1 (Rattus norvegicus, UniProt O35433); experiment: cell-based
# T1 construct: expressed in transfected cells; host or cells: Xenopus laevis oocytes injected with cRNA
# Method: To control the expression level of the TRPV1 channels, experiments were initiated with a first activation of TRPV1 with 1 μM capsaicin (CAP). […] This activation gives an inward non-selective cation current. […] Before application of HCRG21, cells are washed with ND96 to remove any presence of […]. […] However, when rHCRG21 was co-applied together with the agonist capsaicin, a reduction of the current was observed (Figure 5b). […] A concentration–response curve was constructed in order to assess the concentration dependence of the rHCRG21 induced effect. The IC50 value yielded 6.9 ± 0.4 μM (Figure 5c).
# Figure 5 Activity profile of rHCRG21 (10 μM) on the TRPV1 receptor. The figures show the results of one representative experiment. Whole-cell current traces in control and rHCRG21 conditions are shown. […] All data represent the average of at least three independent experiments (n ≥ 3) and are presented as mean ± standard error; (c) Concentration–response curve for rHCRG21 on TRPV1 receptor.
# For the expression of rKv1.1, hKv1.3, rKv1.4, rKv1.5, rKv1.6, Shaker IR, hERG, and TRPV1 in Xenopus oocytes, the linearized plasmids were transcribed using the T7 or SP6 mMESSAGE-mMACHINE transcription kit (Ambion, Austin, TX, USA). The harvesting of stage V–VI oocytes from anaesthetized female Xenopus laevis frog was previously described. Oocytes were injected with 50 nL of cRNA at a concentration of 1 ng/nL using a micro-injector (Drummond Scientific, Broomall, PA, USA). The oocytes were incubated in a solution containing (in mM): NaCl, 96; KCl, 2; CaCl2, 1.8; MgCl2, 2 and HEPES, 5 (pH 7.4), supplemented with 50 mg/L gentamicin sulfate.
# Two-electrode voltage-clamp recordings were performed at room temperature (18–22 °C) using a Geneclamp 500 amplifier (Molecular Devices, Sunnyvale, CA, USA) controlled by a pClamp data acquisition system (Axon Instruments, Foster City, CA, USA). Whole cell currents from oocytes were recorded 1–4 days after injection. Bath solution composition was ND96 (in mM): NaCl, 96; KCl, 2; CaCl2, 1.8; MgCl2, 2, and HEPES, 5 (pH 7.4). Voltage and current electrodes were filled with 3 M KCl. Resistances of both electrodes were kept between 0.8 and 1.5 MΩ. The elicited currents were filtered and sampled at, respectively, 1 kHz and 10 kHz (for potassium currents) and at, respectively, 0.2 kHz and 0.5 kHz (for TRPV1 currents), using a four-pole low-pass Bessel filter. Leak subtraction was performed using a –P/4 protocol. KV1.1–KV1.6 and Shaker currents were evoked by 500 ms depolarizations to 0 mV followed by a 500 ms pulse to −50 mV, from a holding potential of −90 mV. Current traces of hERG channels were elicited by applying a +40 mV prepulse for 2 s followed by a step to −120 mV for 2 s. TRPV1 currents were measured in ND96 solution using a protocol of −90 mV during 400 s. The recording chamber was perfused at a rate of 2 mL·min^−1 with a ND96 solution. As previously described, capsaicin (2 μM) was used as an agonist and capsazepine (10 μM) as an antagonist of TRPV1. Capsaicin and capsazepine were purchased from Sigma. All data represent at least 3 independent experiments (n ≥ 3) in which independent experiments represent experiments on different cells expressing TRPV1 channel and are presented as mean ± standard error.
# rKv1.1 = experiment: Kv1.1 currents, two-electrode voltage-clamp in Xenopus laevis oocytes; assay type: cell-based; conditions: 10 μM peptide, n ≥ 3; holding −90 mV, 500 ms to 0 mV; ND96 pH 7.4
# Method: (§1) In order to characterize HCRG21 functionally, recombinant HCRG21 was, at a concentration of 10 μM, tested for its activity against an 8 voltage-gated potassium channels (Kv1.1–Kv1.6, hERG, and Shaker IR) and the vanilloid receptor 1 (TRPV1).
# (§2) Figure 4 Activity of rHCRG21 on Kv channels expressed in X. laevis oocytes. Traces shown are representative of at least three independent experiments (n ≥ 3). The dotted line indicates the zero current level. The asterisk (*) distinguishes the steady-state current after application of 10 μM peptide.
# (§3) For the expression of rKv1.1, hKv1.3, rKv1.4, rKv1.5, rKv1.6, Shaker IR, hERG, and TRPV1 in Xenopus oocytes, the linearized plasmids were transcribed using the T7 or SP6 mMESSAGE-mMACHINE transcription kit (Ambion, Austin, TX, USA). The harvesting of stage V–VI oocytes from anaesthetized female Xenopus laevis frog was previously described. […]
# (§4) Two-electrode voltage-clamp recordings were performed at room temperature (18–22 °C) using a Geneclamp 500 amplifier (Molecular Devices, Sunnyvale, CA, USA) controlled by a pClamp data acquisition system (Axon Instruments, Foster City, CA, USA). Whole cell currents from oocytes were recorded 1–4 days after injection. […] TRPV1 currents were measured in ND96 solution using a protocol of −90 mV during 400 s. […]
# rKv1.4 = experiment: Kv1.4 currents, two-electrode voltage-clamp in Xenopus laevis oocytes; assay type: cell-based; conditions: 10 μM peptide, n ≥ 3; holding −90 mV, 500 ms to 0 mV; ND96 pH 7.4
# Method: as §1, §2, §3, §4
# trypsin = experiment: Trypsin inhibition (Dixon method, BAPNA substrate); assay type: biochemical
# Method: (§5) The trypsin/α-chymotrypsin inhibitory activity of the peptide was tested through the standard procedure using N-α-benzoyl-D,L-arginine p-nitroanilide hydrochloride (BAPNA) and ethyl ester of N-benzoyl-L-tyrosine (BTEE) as a substrates, respectively. Determination of the trypsin/α-chymotrypsin inhibition constants of rHCRG21 was performed according to the method of Dixon using substrates concentrations of 133 and 65 mM. The concentration of both enzymes in the reaction mixture was 215 nM. Concentrations of the tested peptide ranged from 0 up to 3.2 mM. The constants were calculated based on the results of three parallel experiments. Computational error limits are in the range of 0.1%–0.5%.
# hKv1.3 = experiment: Kv1.3 currents, two-electrode voltage-clamp in Xenopus laevis oocytes; assay type: cell-based; conditions: 10 μM peptide, n ≥ 3; holding −90 mV, 500 ms to 0 mV; ND96 pH 7.4
# Method: as §1, §2, §3, §4
# Shaker IR = Shaker IR currents, two-electrode voltage-clamp in Xenopus laevis oocytes; assay type: cell-based; conditions: 10 μM peptide, n ≥ 3; holding −90 mV, 500 ms to 0 mV; ND96 pH 7.4
# Method: as §1, §2, §3, §4
# Kv1.2 = Kv1.2 currents, two-electrode voltage-clamp in Xenopus laevis oocytes; assay type: cell-based; conditions: 10 μM peptide, n ≥ 3; holding −90 mV, 500 ms to 0 mV; ND96 pH 7.4
# Method: as §1, §2
# Two-electrode voltage-clamp recordings were performed at room temperature (18–22 °C) using a Geneclamp 500 amplifier (Molecular Devices, Sunnyvale, CA, USA) controlled by a pClamp data acquisition system (Axon Instruments, Foster City, CA, USA). Whole cell currents from oocytes were recorded 1–4 days after injection. Bath solution composition was ND96 (in mM): NaCl, 96; KCl, 2; CaCl2, 1.8; MgCl2, 2, and HEPES, 5 (pH 7.4). Voltage and current electrodes were filled with 3 M KCl. Resistances of both electrodes were kept between 0.8 and 1.5 MΩ. The elicited currents were filtered and sampled at, respectively, 1 kHz and 10 kHz (for potassium currents) and at, respectively, 0.2 kHz and 0.5 kHz (for TRPV1 currents), using a four-pole low-pass Bessel filter. […] TRPV1 currents were measured in ND96 solution using a protocol of −90 mV during 400 s. […]
# rKv1.6 = experiment: Kv1.6 currents, two-electrode voltage-clamp in Xenopus laevis oocytes; assay type: cell-based; conditions: 10 μM peptide, n ≥ 3; holding −90 mV, 500 ms to 0 mV; ND96 pH 7.4
# Method: as §1, §2, §3, §4
# rKv1.5 = experiment: Kv1.5 currents, two-electrode voltage-clamp in Xenopus laevis oocytes; assay type: cell-based; conditions: 10 μM peptide, n ≥ 3; holding −90 mV, 500 ms to 0 mV; ND96 pH 7.4
# Method: as §1, §2, §3, §4
# hERG = hERG currents, two-electrode voltage-clamp in Xenopus laevis oocytes; assay type: cell-based; conditions: 10 μM peptide, n ≥ 3; +40 mV prepulse 2 s, then −120 mV 2 s; ND96 pH 7.4
# Method: as §1, §2, §3, §4
# α-chymotrypsin = α-chymotrypsin (Bos taurus, UniProt P00766); experiment: α-Chymotrypsin inhibition (Dixon method, BTEE substrate); assay type: biochemical; conditions: 133 and 65 mM, enzyme 215 nM, peptide 0 up to 3.2 mM, three parallel experiments
# Method: as §5
# T1 sequence (O35433 whole entry): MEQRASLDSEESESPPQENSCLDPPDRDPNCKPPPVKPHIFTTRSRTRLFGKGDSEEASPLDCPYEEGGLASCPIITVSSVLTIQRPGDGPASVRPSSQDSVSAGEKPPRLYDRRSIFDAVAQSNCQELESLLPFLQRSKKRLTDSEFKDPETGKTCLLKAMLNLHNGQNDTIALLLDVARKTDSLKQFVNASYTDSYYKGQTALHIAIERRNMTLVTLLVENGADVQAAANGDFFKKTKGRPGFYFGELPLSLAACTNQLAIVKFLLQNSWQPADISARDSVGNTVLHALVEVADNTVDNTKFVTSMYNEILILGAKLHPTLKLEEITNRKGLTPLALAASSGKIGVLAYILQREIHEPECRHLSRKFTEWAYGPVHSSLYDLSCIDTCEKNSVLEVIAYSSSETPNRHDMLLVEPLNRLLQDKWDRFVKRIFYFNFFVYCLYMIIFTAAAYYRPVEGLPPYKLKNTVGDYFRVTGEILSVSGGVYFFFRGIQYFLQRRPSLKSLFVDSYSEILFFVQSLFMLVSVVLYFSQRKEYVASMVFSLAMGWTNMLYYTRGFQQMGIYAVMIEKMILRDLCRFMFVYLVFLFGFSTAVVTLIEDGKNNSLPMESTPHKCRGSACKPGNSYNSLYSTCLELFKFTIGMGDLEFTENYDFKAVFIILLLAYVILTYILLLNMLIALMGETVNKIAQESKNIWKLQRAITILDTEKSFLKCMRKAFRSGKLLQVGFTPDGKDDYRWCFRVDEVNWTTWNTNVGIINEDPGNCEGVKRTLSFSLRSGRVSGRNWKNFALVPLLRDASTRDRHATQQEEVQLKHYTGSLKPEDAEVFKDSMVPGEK
sequence,measurement,setting,value
"RGICSEPKVVGPCTAYFRRFYFDSETGKCTPFIYGGCEGNGNNFETLRACRAICRA (disulfide 4-54, 13-37, 29-50 (inferred)) [rHCRG21]",inhibition of capsaicin-induced TRPV1 current,"TRPV1; 10 μM peptide co-applied with capsaicin (2 μM), −90 mV, ND96 pH 7.4, mean ± standard error, n ≥ 3",59.3% ± 4.3%
same,effect on TRPV1 when administered alone,"TRPV1; 10 μM, in the absence of capsaicin",did not show any significant effect; also recorded: Lack of effect
same,effect on TRPV1 when applied prior to capsaicin,"TRPV1; applied prior to any stimulation of capsaicin, data not shown",no activity was seen
same,IC50,"TRPV1; co-applied with capsaicin (2 μM), −90 mV, ND96 pH 7.4, 18–22 °C, mean ± standard error, n ≥ 3, read-out: IC50, inhibition of capsaicin-induced TRPV1 current",6900 ± 400 nM
same,effect on TRPV1 channel (conclusion),TRPV1; electrophysiological data,strongly inhibits the TRPV1 channel
same,activity on Kv1.1,rKv1.1,did not exert any activity
same,activity on Kv1.4,rKv1.4,did not exert any activity
same,Ki,"trypsin; Dixon method, BAPNA substrate, 133 and 65 mM, enzyme 215 nM, peptide 0 up to 3.2 mM, three parallel experiments",200 nM
same,Trypsin inhibitory activity of HPLC fraction,trypsin; fraction marked rHCRG21 after RP-HPLC,Trypsin inhibitory activity was detected
same,activity on Kv1.3,hKv1.3,did not exert any activity
same,activity on Shaker IR,Shaker IR,did not exert any activity
same,activity on Kv1.2,Kv1.2,did not exert any activity
same,activity on Kv1.6,rKv1.6,did not exert any activity
same,activity on Kv1.5,rKv1.5,did not exert any activity
same,activity on hERG,hERG,did not exert any activity
same,Ki,α-chymotrypsin,700 nM
